From ChEMBL document CHEMBL1201862, “PubChem BioAssay data set” (2004)
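Briefly, cells in 96-well plates were exposed to five compound concentrations for 48 h, and endpoints were estimated by linear interpolation. GI50: concentration for 50% inhibition of growth.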 Activity calls are given as the source filed them. No stated cut-off is given here; in the data, active = GI50 up to about 1.1 µM and inactive = higher.

Assays:
Experiment in all cases: NCI anticancer screen, dose series, 48 h
M14 = test system: M14
SNB-75 = test system: SNB-75
CAKI-1 = test system: CAKI-1
U-251 = test system: U-251
K562 = test system: K562
UACC-62 = test system: UACC-62
A549 = test system: A549
786-0 = test system: 786-0
DU-145 = test system: DU-145
NCI-H460 = test system: NCI-H460
OVCAR-3 = test system: OVCAR-3
UACC-257 = test system: UACC-257
A498 = test system: A498
IGROV-1 = test system: IGROV-1
SNB-19 = test system: SNB-19
SW-620 = test system: SW-620
RPMI-8226 = test system: RPMI-8226
HOP-62 = test system: HOP-62
NCI-H522 = test system: NCI-H522
Hs-578T = test system: Hs-578T

| SMILES | GI50 (M14) | GI50 (SNB-75) | GI50 (CAKI-1) | GI50 (U-251) | GI50 (K562) | GI50 (UACC-62) | GI50 (A549) | GI50 (786-0) | GI50 (DU-145) | GI50 (NCI-H460) | GI50 (OVCAR-3) | GI50 (UACC-257) | GI50 (A498) | GI50 (IGROV-1) | GI50 (SNB-19) | GI50 (SW-620) | GI50 (RPMI-8226) | GI50 (HOP-62) | GI50 (NCI-H522) | GI50 (Hs-578T) |
| --- | --- | --- | --- | --- | --- | --- | --- | --- | --- | --- | --- | --- | --- | --- | --- | --- | --- | --- | --- | --- |
| CCCCOCn1c(=O)[nH]c(=O)c2ccccc21 | > 100 µM (inactive) | 13.3 µM (inactive) | > 100 µM (inactive) | > 100 µM (inactive) | > 100 µM (inactive) | > 100 µM (inactive) | > 100 µM (inactive) | > 100 µM (inactive) | > 100 µM (inactive) | 88.1 µM (inactive) | > 100 µM (inactive) | 78.7 µM (inactive) | > 100 µM (inactive) | 49 µM (inactive) | 14.9 µM (inactive) | > 100 µM (inactive) |  |  |  |  |
| COc1ccc2c3c1OC1C(OC)(OC)CC4(C=C2)CN(C)CCC314 (centres undefined) |  | > 100 µM (inactive) | > 100 µM (inactive) | > 100 µM (inactive) | 41.9 µM (inactive) | > 100 µM (inactive) | > 100 µM (inactive) | > 100 µM (inactive) | > 100 µM (inactive) | > 100 µM (inactive) | > 100 µM (inactive) | > 100 µM (inactive) | 28.6 µM (inactive) | > 100 µM (inactive) | > 100 µM (inactive) | > 100 µM (inactive) | > 100 µM (inactive) | > 100 µM (inactive) |  |  |
| COc1cccc(-c2nc(-c3cnccn3)n(C3OC(CO)C(O)C3O)n2)c1 (centres undefined) | > 100 µM (inactive) | > 100 µM (inactive) |  | > 100 µM (inactive) | > 100 µM (inactive) | > 100 µM (inactive) | > 100 µM (inactive) | > 100 µM (inactive) | > 100 µM (inactive) | > 100 µM (inactive) | > 100 µM (inactive) | > 100 µM (inactive) |  | > 100 µM (inactive) | > 100 µM (inactive) | > 100 µM (inactive) |  | > 100 µM (inactive) | > 100 µM (inactive) |  |
| Cc1cccc(CP(Cc2cccc(C)c2)CC2(Cp3c4ccccc4c4ccccc43)COC2)c1 | 3.97 µM (inactive) | 0.501 µM (active) | 9.75 µM (inactive) | 0.47 µM (active) | 1.33 µM (inactive) | 11.7 µM (inactive) | 0.206 µM (active) | 1.53 µM (inactive) | 4.71 µM (inactive) | 1.63 µM (inactive) | 8.43 µM (inactive) | 8.97 µM (inactive) | 7.41 µM (inactive) | 2.3 µM (inactive) | 5.96 µM (inactive) | 10.3 µM (inactive) | 1.02 µM (active) | 66.7 µM (inactive) | 1.18 µM (inactive) |  |
| CCOC(=O)c1sc2c(C(=O)OCC)n3ccccc3c2c1N | > 100 µM (inactive) | 31.7 µM (inactive) | > 100 µM (inactive) | 31.8 µM (inactive) | > 100 µM (inactive) | > 100 µM (inactive) | > 100 µM (inactive) | 36.2 µM (inactive) |  | > 100 µM (inactive) | > 100 µM (inactive) | > 100 µM (inactive) | 71.9 µM (inactive) | > 100 µM (inactive) | 31.7 µM (inactive) | > 100 µM (inactive) | > 100 µM (inactive) | 19.2 µM (inactive) | 20.3 µM (inactive) |  |
| O=C(/C=C/c1ccccc1)CSc1nc[nH]n1 | > 100 µM (inactive) | 14.3 µM (inactive) | > 100 µM (inactive) | 37.1 µM (inactive) | 46.8 µM (inactive) | > 100 µM (inactive) | > 100 µM (inactive) | > 100 µM (inactive) | > 100 µM (inactive) | 79.4 µM (inactive) | > 100 µM (inactive) | > 100 µM (inactive) |  | > 100 µM (inactive) | > 100 µM (inactive) | 65.5 µM (inactive) | 35.1 µM (inactive) | > 100 µM (inactive) | 30.5 µM (inactive) |  |
| CC(NC(=O)OC(C)(C)C)C(=O)NC(Cc1ccccc1)C(=O)NCC(=O)Oc1c(Cl)c(Cl)c(Cl)c(Cl)c1Cl (centres undefined) | 26.2 µM (inactive) | 34.6 µM (inactive) |  | 19.7 µM (inactive) | 30.6 µM (inactive) | 22.3 µM (inactive) | 19.5 µM (inactive) | 21.2 µM (inactive) |  | 25.6 µM (inactive) |  | 20 µM (inactive) | 21.2 µM (inactive) | 22.8 µM (inactive) | 29.3 µM (inactive) | 20.1 µM (inactive) | 23.2 µM (inactive) | 18.7 µM (inactive) |  | 37.5 µM (inactive) |
| O=c1oc2c3ccc4ccccc4c3n(Cc3nc4ccccc4[nH]3)c2c2ccccc12 | 4.71 µM (inactive) | 5.51 µM (inactive) | 3.77 µM (inactive) | 4.25 µM (inactive) | 2.47 µM (inactive) | 3.28 µM (inactive) | 5.61 µM (inactive) | 7.16 µM (inactive) |  | 0.518 µM (active) | 7.08 µM (inactive) | 5.01 µM (inactive) | 24.4 µM (inactive) | > 29.3 µM (inactive) | 4.5 µM (inactive) | 2.2 µM (inactive) | 3.48 µM (inactive) | 4.16 µM (inactive) | 4.42 µM (inactive) |  |
| COc1cc(NCc2ccc3nc(-c4ccccc4)c(N)nc3c2)cc(OC)c1OC | 18.4 µM (inactive) | 19.1 µM (inactive) | 28.8 µM (inactive) | 39.3 µM (inactive) | 41 µM (inactive) | 29.4 µM (inactive) | 30.8 µM (inactive) | 35.6 µM (inactive) | 36.6 µM (inactive) | 31.4 µM (inactive) | 25.6 µM (inactive) | 22.7 µM (inactive) | 23.3 µM (inactive) | 43.6 µM (inactive) | 46.2 µM (inactive) | 48.5 µM (inactive) |  | 43.8 µM (inactive) | 23.7 µM (inactive) |  |
| CN1CCN(/C(N)=C(\C#N)C(=O)Nc2ccc(Cl)cc2)CC1 | 30.6 µM (inactive) | > 100 µM (inactive) | 79.8 µM (inactive) | 96.8 µM (inactive) | 23 µM (inactive) | 23 µM (inactive) | > 100 µM (inactive) | 95.5 µM (inactive) | 79.3 µM (inactive) | 74.6 µM (inactive) | 41.7 µM (inactive) | 59 µM (inactive) | 40.4 µM (inactive) | 99.1 µM (inactive) | > 100 µM (inactive) | > 100 µM (inactive) | 27.5 µM (inactive) | > 100 µM (inactive) |  |  |
| CCCCN/C(=N/C#N)NCc1ccccc1 | > 100 µM (inactive) | 42.8 µM (inactive) | > 100 µM (inactive) | > 100 µM (inactive) |  | > 100 µM (inactive) | > 100 µM (inactive) | > 100 µM (inactive) |  | > 100 µM (inactive) | > 100 µM (inactive) |  | > 100 µM (inactive) | > 100 µM (inactive) | > 100 µM (inactive) | > 100 µM (inactive) | > 100 µM (inactive) | > 100 µM (inactive) | > 100 µM (inactive) |  |
| CS(=O)(=O)OCCN1CCN(C(=O)c2cccc3c(Nc4ccc(S(N)(=O)=O)cc4)c4ccccc4nc23)CC1 | > 100 µM (inactive) | > 100 µM (inactive) | > 100 µM (inactive) | > 100 µM (inactive) | > 51.5 µM (inactive) | > 100 µM (inactive) | > 100 µM (inactive) | > 100 µM (inactive) |  | > 100 µM (inactive) | > 100 µM (inactive) | > 66.7 µM (inactive) | > 100 µM (inactive) | > 100 µM (inactive) | > 49.8 µM (inactive) | > 39.3 µM (inactive) | > 46.5 µM (inactive) | > 100 µM (inactive) | > 100 µM (inactive) |  |
| CCN(CC)CCN1CCN=C2c3cc(OC)ccc3Nc3c([N+](=O)[O-])ccc1c32 | 1 µM (active) | 1.95 µM (inactive) | 1.93 µM (inactive) |  | 0.575 µM (active) | 1 µM (active) | 1.24 µM (inactive) | 0.369 µM (active) | 2.8 µM (inactive) |  |  | 2.59 µM (inactive) |  | 1.72 µM (inactive) |  | 0.449 µM (active) | 0.64 µM (active) | 0.56 µM (active) |  |  |
| N#CC1C(=O)NC(=O)C1=O (centres undefined) | > 100 µM (inactive) | > 100 µM (inactive) | > 100 µM (inactive) | > 100 µM (inactive) | > 100 µM (inactive) | > 100 µM (inactive) |  | > 100 µM (inactive) |  | > 100 µM (inactive) | > 100 µM (inactive) | > 100 µM (inactive) | > 100 µM (inactive) | > 100 µM (inactive) | > 100 µM (inactive) | > 100 µM (inactive) | > 100 µM (inactive) | > 100 µM (inactive) | > 100 µM (inactive) |  |
| CCOC(=O)C(=O)Nc1nc2c(s1)C(=O)c1ccccc1C2=O | 15.7 µM (inactive) | 16.2 µM (inactive) | 18.5 µM (inactive) | 16.6 µM (inactive) | 6.03 µM (inactive) | 17.5 µM (inactive) | 17.8 µM (inactive) | 17.4 µM (inactive) |  | 19.2 µM (inactive) | 5.62 µM (inactive) | 16.1 µM (inactive) | 16.1 µM (inactive) | 19.1 µM (inactive) | 17.9 µM (inactive) | 13.4 µM (inactive) | 4.74 µM (inactive) | 18.9 µM (inactive) | 14.9 µM (inactive) |  |
| O=S(=O)(O)c1cc(/N=N/c2c(O)ccc3ccccc23)c2c(S(=O)(=O)O)cccc2c1 | > 100 µM (inactive) | < 0.01 µM (active) | > 100 µM (inactive) | > 100 µM (inactive) | > 100 µM (inactive) | > 100 µM (inactive) | > 100 µM (inactive) | > 100 µM (inactive) |  | > 100 µM (inactive) | > 100 µM (inactive) | > 100 µM (inactive) |  | > 100 µM (inactive) | > 100 µM (inactive) | > 100 µM (inactive) | > 100 µM (inactive) | > 100 µM (inactive) | > 100 µM (inactive) | > 100 µM (inactive) |
